Earlier results as cited in patent publication US6048869A, “Tricyclic compounds” (Merck & Co., Inc., priority 1999, dated 2000).

Legend:
5α-reductase 1 = conditions: isozyme predominating in sebaceous glands of facial and skin tissue; Harris et al. 1992

inhibition of the human prostate enzyme (5α-reductase 2; human prostate enzyme): potent inhibitor | inhibition of type 2 5α-reductase (5α-reductase 2; isozyme predominating in the prostate): potently inhibited | sensitivity of type 1 5α-reductase to finasteride (5α-reductase 1): relatively insensitive
Structure (SMILES): CC(C)(C)NC(=O)[C@H]1CC[C@H]2[C@@H]3CC[C@H]4NC(=O)C=C[C@]4(C)[C@H]3CC[C@]12C [Finasteride, 17,-(N-tert-butylcarbamoyl)-3-oxo-4-aza-5 α-androst-1-ene-3-one]
